Values after ≈ are worked out from the molar mass of the structure shown.
Assays:
Vero [1] = assay: Cytotoxicity in Vero cell line; assay type: functional; settings: Chlorocebus sabaeus
Vero [2] = assay: Inhibitory activity against Herpes Simplex virus type 1 (186 strain) in a Plaque reduction Assay in vero cells; assay type: functional, cell-based; settings: Chlorocebus sabaeus
Vero [3] = assay: Inhibitory activity against Herpes Simplex virus type 1 (KOS strain) in a Plaque reduction Assay in vero cells; assay type: functional, cell-based; settings: Chlorocebus sabaeus
F2002 cell line = assay: Inhibitory activity against human cytomegalo virus (WFI strain) in a plaque reduction assay in flow 2002 human fibroblast cells; assay type: functional, cell-based
[4] = Cytotoxicity in Flow 2002 cell line; assay type: cell-based; settings: human, Flow 2002 cells

Compound	CC50 (Vero [1])	IC50 (Vero [2])	IC50 (Vero [3])	IC50 (F2002 cell line)	CC50 [4]
Nc1nc2c(ncn2COCCO)c(=O)[nH]1 [ACYCLOVIR]	> 10 µg/mL	0.5 µg/mL (≈ 2.22 µM)	0.1 µg/mL (≈ 0.444 µM)	–	–
O=c1[nH]c(=O)n([C@H]2CO[C@H](CO)S2)cc1/C=C/Br	100 µg/mL (≈ 298 µM)	30 µg/mL (≈ 89.5 µM)	> 30 µg/mL	> 100 µg/mL	> 100 µg/mL
O=c1[nH]c(=O)n([C@H]2CO[C@@H](CO)O2)cc1/C=C/Br	100 µg/mL (≈ 313 µM)	> 30 µg/mL	> 30 µg/mL	> 100 µg/mL	> 100 µg/mL
O=c1[nH]c(=O)n([C@@H]2CO[C@H](CO)S2)cc1/C=C/Br	> 100 µg/mL	> 100 µg/mL	> 100 µg/mL	> 100 µg/mL	100 µg/mL (≈ 298 µM)
O=c1[nH]c(=O)n([C@@H]2CO[C@@H](CO)S2)cc1/C=C/Br	30 µg/mL (≈ 89.5 µM)	> 10 µg/mL	> 10 µg/mL	80 µg/mL (≈ 239 µM)	100 µg/mL (≈ 298 µM)
O=c1[nH]c(=O)n([C@@H]2CO[C@H](CO)O2)cc1/C=C/Br	100 µg/mL (≈ 313 µM)	> 30 µg/mL	0.3 µg/mL (≈ 0.94 µM)	5 µg/mL (≈ 15.7 µM)	30 µg/mL (≈ 94 µM)
O=c1[nH]c(=O)n([C@H]2CO[C@@H](CO)S2)cc1/C=C/Br	100 µg/mL (≈ 298 µM)	2.9 µg/mL (≈ 8.65 µM)	> 30 µg/mL	> 100 µg/mL	100 µg/mL (≈ 298 µM)
Nc1nc2c(ncn2COC(CO)CO)c(=O)[nH]1 [GANCICLOVIR]	–	–	–	0.1 µg/mL (≈ 0.392 µM)	> 100 µg/mL
O=c1[nH]c(=O)n([C@@H]2CO[C@@H](CO)O2)cc1/C=C/Br	100 µg/mL (≈ 313 µM)	> 30 µg/mL	> 30 µg/mL	25 µg/mL (≈ 78.3 µM)	100 µg/mL (≈ 313 µM)
O=c1[nH]c(=O)n([C@H]2CO[C@H](CO)O2)cc1/C=C/Br	100 µg/mL (≈ 313 µM)	> 30 µg/mL	3.4 µg/mL (≈ 10.7 µM)	> 30 µg/mL	30 µg/mL (≈ 94 µM)

Reference: ChEMBL document CHEMBL1151552, “Inhibitory activities of herpes simplex viruses type 1 and 2 and human cytomegalovirus by stereoisomers of 2-deoxy-3-oxa-5(E)-(2-bromovinyl)uridines and their 4-thio analogues” (Bioorg Med Chem Lett, 1994)
